From patent US10214531B2 (Institute for Drug Discovery, LLC, priority 2013, dated 2019)
pIC50: −log10 of the molar value. Counter-ions that a name gives are not always drawn.

Molecular target: recombinant human AMCase (Homo sapiens, UniProt Q9BZP6)
Assay: Human AMCase Activity Assay
Assay type: biochemical
Settings: recombinant hAMCase, 4-methylumbelliferyl chitobioside substrate, citrate buffer pH 5.2, 37° C., 60 minutes; read-out: Activity (IC50 value key)
In short: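 Recombinant human enzyme with fluorogenic 4-methylumbelliferyl β-D-N,N′-diacetylchitobioside substrate in citrate buffer, pH 5.2, 60 min at 37 °C in the dark with shaking. Read-out is 4MU fluorescence at 460 nm.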

Chain of recombinant human AMCase (Q9BZP6 22-476): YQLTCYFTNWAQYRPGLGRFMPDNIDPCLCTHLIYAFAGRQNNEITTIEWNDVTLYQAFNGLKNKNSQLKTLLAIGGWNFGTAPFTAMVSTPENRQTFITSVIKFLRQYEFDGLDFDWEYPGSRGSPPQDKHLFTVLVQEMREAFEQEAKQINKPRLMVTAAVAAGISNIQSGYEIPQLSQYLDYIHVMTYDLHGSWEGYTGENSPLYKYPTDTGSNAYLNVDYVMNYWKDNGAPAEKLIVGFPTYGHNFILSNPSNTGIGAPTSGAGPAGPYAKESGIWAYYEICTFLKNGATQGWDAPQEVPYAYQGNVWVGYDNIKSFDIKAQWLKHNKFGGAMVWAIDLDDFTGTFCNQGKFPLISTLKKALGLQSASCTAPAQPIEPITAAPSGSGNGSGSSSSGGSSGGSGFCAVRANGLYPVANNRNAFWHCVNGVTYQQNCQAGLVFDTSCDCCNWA

pIC50	Compound
4.00 to 5.00	Nc1n[nH]c(N2CCN(CCOc3ccccc3F)CC2)n1 [Example 85, 5-(4-(2-(2-fluorophenoxy)ethyl)piperazin-1-yl)-1H-1,2,4-triazol-3-amine]
4.00 to 5.00	CC(COc1ccc(Br)cc1)N1CCN(c2nc(N)n[nH]2)CC1 (centres unmarked) [Example 20-2, 5-(4-(1-(4-bromophenoxy)propan-2-yl)piperazin-1-yl)-1H-1,2,4-triazol-3-amine]
> 7.00	Nc1n[nH]c(N2CCC(N(CCc3ccc(Cl)cc3)[C@H](CO)c3ccccc3)CC2)n1 [Example 135, (S)-2-((1-(3-amino-1H-1,2,4-triazol-5-yl)piperidin-4-yl)(4-chlorophenethyl)amino)-2-phenylethan-1-ol]
5.00 to 6.00	CN(CCc1ccc(Cl)c(Cl)c1)C1CCN(c2nc(N)n[nH]2)CC1 [Example 176, 1-(3-amino-1H-1,2,4-triazol-5-yl)-N-(3,4-dichlorophenethyl)-N-methylpiperidin-4-amine]
< 4.00	Cn1nc(N)nc1N1CCN(CCOc2ccc(Br)cc2)CC1 [Example 27-2, 5-(4-(2-(4-bromophenoxy)ethyl)piperazin-1-yl)-1-methyl-1H-1,2,4-triazol-3-amine]
< 4.00	Nc1n[nH]c(N2CCN(CCOc3ccc(F)cc3)CC2)n1 [Example 1, 5-(4-(2-(4-fluorophenoxy)ethyl)piperazin-1-yl)-1H-1,2,4-triazol-3-amine]
4.00 to 5.00	COC[C@@H](c1ccccc1)N(CCc1ccc(Cl)cc1)C1CCN(c2nc(N)n[nH]2)CC1 [Example 109]
> 7.00	Nc1nc(N2CCC(N(CCc3ccc(Cl)cc3)Cc3ccc(F)cc3Cl)CC2)n[nH]1 [Example 145, 1-(3-amino-1H-1,2,4-triazol-5-yl)-N-(2-chloro-4-fluorobenzyl)-N-(4-chlorophenethyl)piperidin-4-amine]
5.00 to 6.00	CC(Cc1ccc(Cl)cc1)NC1CCN(c2nc(N)n[nH]2)CC1 (centres unmarked) [Example 151, 1-(3-amino-1H-1,2,4-triazol-5-yl)-N-(1-(4-chlorophenyl)propan-2-yl)piperidin-4-amine dihydrochloride]
> 7.00	Nc1n[nH]c(N2CCC(N(CCc3ccc(Br)cc3)Cc3ccccc3Cl)CC2)n1 [Example 98, 1-(3-amino-1H-1,2,4-triazol-5-yl)-N-(4-bromophenethyl)-N-(2-chlorobenzyl) piperidin-4-amine]
< 4.00	Nc1n[nH]c(N2CCNCC2)n1 [Example 38, 5-(piperazin-1-yl)-1H-1,2,4-triazol-3-amine trihydrochloride]
< 4.00	Nc1n[nH]c(N2CC3CN(CCOc4ccc(Br)cc4)CC3C2)n1 (centres unmarked) [Example 29, 5-(5-(2-(4-bromophenoxy)ethyl)hexahydropyrrolo[3,4-c]pyrrol-2(1H)-yl)-1H-1,2,4-triazol-3-amine]
< 4.00	Nc1n[nH]c(N2CCC(C(=O)NCc3ccc(OC(F)(F)F)cc3)CC2)n1 [Example 205, 1-(3-amino-1H-1,2,4-triazol-5-yl)-N-(4-(trifluoromethoxy)benzyl)piperidine-4-carboxamide]
< 4.00	Nc1n[nH]c(N2CCN(C(=O)COc3ccc(Cl)cc3)CC2)n1 [Example 24, 1-(4-(3-amino-1H-1,2,4-triazol-5-yl)piperazin-1-yl)-2-(4-chlorophenoxy)-ethanone]
< 4.00	Nc1n[nH]c(N2CCC(CNS(=O)(=O)c3ccc(Br)cc3)CC2)n1 [Example 12, N-((1-(3-amino-1H-1,2,4-triazol-5-yl)piperidin-4-yl)methyl)-4-bromobenzenesulfonamide]
> 7.00	Nc1n[nH]c(N2CCC(N(CCc3ccc(Br)cc3)Cc3cccc4cnccc34)CC2)n1 [Example 168, 1-(3-amino-1H-1,2,4-triazol-5-yl)-N-(4-bromophenethyl)-N-(isoquinolin-5-ylmethyl)piperidin-4-amine]
< 4.00	CN(C)C(CC(=O)N1CCN(c2nc(N)n[nH]2)CC1)c1ccccc1F (centres unmarked) [Example 242, 1-(4-(3-amino-1H-1,2,4-triazol-5-yl)piperazin-1-yl)-3-(dimethylamino)-3-(2-fluorophenyl)propan-1-one dihydrochloride]
< 4.00	Nc1n[nH]c(N2CCC(C(=O)NCc3ccc(F)c(C(F)(F)F)c3)CC2)n1 [Example 54, 1-(3-amino-1H-1,2,4-triazol-5-yl)-N-(4-fluoro-3-(trifluoromethyl)benzyl)piperidine-4-carboxamide]
< 4.00	Nc1n[nH]c(N2CCN(CCOc3ccc4[nH]ccc4c3)CC2)n1 [Example 82, 5-(4-(2-((1H-indol-5-yl)oxy)ethyl)piperazin-1-yl)-1H-1,2,4-triazol-3-amine]
4.00 to 5.00	Nc1n[nH]c(N2CCN(CCOc3ccccc3Cl)CC2)n1 [Example 79, 5-(4-(2-(2-chlorophenoxy)ethyl)piperazin-1-yl)-1H-1,2,4-triazol-3-amine]
< 4.00	CC(=O)NC(CC(=O)N1CCN(c2nc(N)n[nH]2)CC1)c1ccc(F)cc1 (centres unmarked) [Example 76, N-(3-(4-(3-amino-1H-1,2,4-triazol-5-yl)piperazin-1-yl)-1-(4-fluorophenyl)-3-oxopropyl)acetamide]

The remaining lines, values behind:

Compound	pIC50
Nc1n[nH]c(N2CCN(CCOCc3ccccc3)CC2)n1 [Example 80, 5-(4-(2-(benzyloxy)ethyl)piperazin-1-yl)-1H-1,2,4-triazol-3-amine]	< 4.00
COc1cccc(CCN(C)C2CCN(c3nc(N)n[nH]3)CC2)c1OC [Example 177, 1-(3-amino-1H-1,2,4-triazol-5-yl)-N-(2,3-dimethoxyphenethyl)-N-methylpiperidin-4-amine]	4.00 to 5.00
Nc1n[nH]c(N2CCC(N(CCc3ccc(Cl)cc3)Cc3cnc4ccccc4n3)CC2)n1 [Example 116, 1-(3-amino-1H-1,2,4-triazol-5-yl)-N-(4-chlorophenethyl)-N-(quinoxalin-2-ylmethyl) piperidin-4-amine dihydrochloride]	6.00 to 7.00
CCOc1ccc(CN2CCN(c3nc(N)n[nH]3)CC2)cc1 [Example 3, 5-(4-(4-ethoxybenzyl)piperazin-1-yl)-1H-1,2,4-triazol-3-amine]	< 4.00
CN(C)C(Cc1ccc(Cl)cc1Cl)C(=O)N1CCN(c2nc(N)n[nH]2)CC1 (centres unmarked) [Example 240, 1-(4-(3-amino-1H-1,2,4-triazol-5-yl)piperazin-1-yl)-3-(2,4-dichlorophenyl)-2-(dimethylamino)propan-1-one]	< 4.00
Nc1n[nH]c(N2CCN(C(=O)CC(N)c3cccc(F)c3)CC2)n1 (centres unmarked) [Example 233, 3-amino-1-(4-(3-amino-1H-1,2,4-triazol-5-yl)piperazin-1-yl)-3-(3-fluorophenyl)propan-1-one]	< 4.00
CN(Cc1nc2ccccc2[nH]1)C1CCN(c2nc(N)n[nH]2)CC1 [Example 136, N-((1H-benzo[d]imidazol-2-yl)methyl)-1-(3-amino-1H-1,2,4-triazol-5-yl)-N-methylpiperidin-4-aminetrihydrochloride]	< 4.00
Nc1n[nH]c(N2CCN(CCOc3ccc(Cl)c4ccccc34)CC2)n1 [Example 23, 5-(4-(2-((4-chloronaphthalen-1-yl)oxy)ethyl)piperazin-1-yl)-1H-1,2,4-triazol-3-amine]	5.00 to 6.00
Nc1n[nH]c(N2CCC(NC(=O)C(O)c3ccc(Cl)cc3)CC2)n1 (centres unmarked) [Example 71, N-(1-(3-amino-1H-1,2,4-triazol-5-yl)piperidin-4-yl)-2-(4-chlorophenyl)-2-hydroxyacetamide]	< 4.00
Nc1n[nH]c(N2CCC(CNC(=O)c3cccc(Br)c3)CC2)n1 [Example 69, N-((1-(3-amino-1H-1,2,4-triazol-5-yl)piperidin-4-yl)methyl)-3-bromo benzamide]	< 4.00
CN(CCc1ccc(Cl)cc1)C1(CCCO)CCN(c2nc(N)n[nH]2)CC1 [Example 245, 3-(1-(3-amino-1H-1,2,4-triazol-5-yl)-4-((4-chlorophenethyl)(methyl)amino)piperidin-4-yl)propan-1-ol]	5.00 to 6.00
Nc1n[nH]c(N2CCC(NS(=O)(=O)Cc3cc(Cl)cc(Cl)c3)CC2)n1 [Example 58, N-(1-(3-amino-1H-1,2,4-triazol-5-yl)piperidin-4-yl)-1-(3,5-dichlorophenyl)methanesulfonamide]	5.00 to 6.00
Nc1n[nH]c(N2CCN(CCOc3cccc(Cl)c3)CC2)n1 [Example 86, 5-(4-(2-(3-chlorophenoxy)ethyl)piperazin-1-yl)-1H-1,2,4-triazol-3-amine]	4.00 to 5.00
Nc1n[nH]c(N2CCC(N(CCc3ccc(Cl)cc3)Cc3ccc(Cl)c(C(F)(F)F)c3)CC2)n1 [Example 126, 1-(3-amino-1H-1,2,4-triazol-5-yl)-N-(4-chloro-3-(trifluoromethyl)benzyl)-N-(4-chlorophenethyl)piperidin-4-amine]	> 7.00
Cc1ccccc1CCN(C)C1CCN(c2nc(N)n[nH]2)CC1 [Example 179, 1-(3-amino-1H-1,2,4-triazol-5-yl)-N-methyl-N-(2-methylphenethyl)piperidin-4-amine]	4.00 to 5.00
CC1(C(=O)NCc2ccc(Br)cc2)CCN(c2nc(N)n[nH]2)CC1 [Example 237, 1-(3-amino-1H-1,2,4-triazol-5-yl)-N-(4-bromobenzyl)-4-methylpiperidine-4-carboxamide]	< 4.00
Nc1n[nH]c(N2CCC(N(CCc3ccc(Cl)cc3)Cc3ccc(-c4ccccc4)cc3)CC2)n1 [Example 111, N-([1,1′-biphenyl]-4-ylmethyl)-1-(3-amino-1H-1,2,4-triazol-5-yl)-N-(4-chlorophenethyl) piperidin-4-amine]	> 7.00
CCC(CN1CCN(c2nc(N)n[nH]2)CC1)Oc1ccc(Cl)cc1 (centres unmarked) [Example 216, 5-(4-(2-(4-chlorophenoxy)butyl)piperazin-1-yl)-1H-1,2,4-triazol-3-aminedihydrochloride]	5.00 to 6.00
COc1ccc(OC)c(CCN(C)C2CCN(c3nc(N)n[nH]3)CC2)c1 [Example 182, 1-(3-amino-1H-1,2,4-triazol-5-yl)-N-(2,5-dimethoxyphenethyl)-N-methylpiperidin-4-amine]	4.00 to 5.00
Cn1nc(N2CCN(CCOc3ccc(Br)cc3)CC2)nc1N [Example 27-1, 3-(4-(2-(4-bromophenoxy)ethyl)piperazin-1-yl)-1-methyl-1H-1,2,4-triazol-5-amine]	< 4.00
